Each block holds one compound with its values, some of them ahead of it. No end group written: not given here.
Legend:
[1] = system: dopamine levels in the striatum; experiment: Striatal dopamine in MPTP-lesioned mice (HPLC with electrochemical detection); type: in vivo; details: C57BL/6 mice, MPTP 20 mg/kg, n = 8 per group
Protocol: C57BL/6 male mice, 8 to 10 weeks of age were purchased from Jackson Labs (Bar Harbor, Maine). 1-methyl-4- phenyl- 1,2,3,6-tetrahydropyridine (MPTP) (Selleck Chemicals Co., Houston, TX) was prepared to a concentration of […] free-base in 0.9% saline on the day of use. C57BL/6 mice were injected with 20 mg/kg free-base MPTP. 8 days after the last injection of MPTP, mice were killed by cervical dislocation and the brain quickly removed and placed on wet ice. Striatal tissues for HPLC analysis and western immunoblotting were collected fresh corresponding to anatomical regions from bregma 1.20 to bregma 0.60, with borders dorsal to the anterior commissure, ventral to the corpus callosum, medial to the lateral ventricle, and 2.5 mm lateral from midline, and frozen at -80 °C until analysis. All procedures utilizing MPTP lesioning and tissue collection were approved by the USC IACUC.
Dopamine concentrations were determined according to an adaptation of Irwin et al. from the method of Kilpatrick et al.. […] The protein pellet was resuspended in 0.5 N NaOH and the total protein concentration determined using the BCA Protein Assay (Pierce, Rockford, IL), a Biotek Model Elx800 microplate reader (Biotek Instruments, Wincoski, VT) and KCjunior software. […]

[2] = system: HeLa expressing HA- EGFP- OMP25 (HA-MITO); experiment: Rapid mitochondria immunoprecipitation, localization of synthetic SHLP2; type: cell-based; details: synthetic SHLP2 treatment, western blot
Protocol: Mitochondria isolation from HeLa cells expressing HA-EGFP-OMP25 (HA-MITO) or myc-EGFP-OMP25 (CON-MITO) was performed according to the published article. Briefly, cells were lysed in KPBS buffer (136 mM KCl, 10 mM KH2PO4, pH 7.25) and homogenized with 25 strokes of a 2 ml homogenizer. The homogenate was spun down at 1000 g for 2 min. The supernatant was incubated with anti-HA magnetic beads on an end-over-end rotator for 3.5 min. The beads were washed with KPBS buffer, incubated for 10 min with lysis buffer (1% triton X-100 lysis buffer with protease inhibitor cocktail), and spun down at 17000 g for 10 min. The supernatants were used for western blot.

HEK293 cells = experiment: Cycloheximide pulse-chase protein stability; type: cell-based; details: HEK293 transiently transfected with C-terminal EGFP-tagged construct; 100ug/ml cycloheximide for the indicated time; western blot, Image J; n = 3/per group
Protocol: Cells were lysed with RIPA Lysis and Extraction Buffer (ThermoFisher Scientific) plus the Halt protease & phosphatase inhibitor cocktail (ThermoFisher Scientific). The lysates were incubated on ice for 10 min then homogenized using a sonicator, and the supernatant was collected by centrifugation at 15,000 x g for 15 min at 4 °C. Protein content in the cellular lysates was quantified using the Pierce™ BCA Protein Assay Kit (ThermoFisher Scientific). Predetermined amounts of proteins (10-30μg) were separated on 8-16% SDS-PAGE gels and blotted onto PVDF membranes (Biorad, Hercules, CA, USA). Membranes were incubated with primary antibody at 4 °C overnight according to the manufacturer’s instructions. After several washes with Tris-buffered saline containing 0.1% Tween-20, membranes were incubated at room temperature for 1 hr with the appropriate HRP-conjugated secondary antibody. Clarity™ Western ECL substrate (Biorad) was used for detecting specific bands. Membranes were imaged on a Bio-Rad ChemiDoc XRS^+ imager. If necessary, relative intensities of the bands in each condition were measured using Image J, a free software program provided by National Institute of Health (Bethesda, Maryland, USA).
Cycloheximide, an inhibitor of protein biosynthesis, was used to examine protein stability in cells. […] The protein quantity from western blot was examined with Image J.

Compound: CN1CC=C(c2ccccc2)CC1 [MPTP, 1-methyl-4-phenyl-1,2,3,6-tetrahydropyridine]
dopamine levels in the striatum, toxin alone [1]: significant decrease in dopamine levels

Compound: MGVKFFTLSTRFFPSVQRAVPLWTNS [WT SHLP2]
mitochondrial localization of synthetic peptide [2]: localized in the mitochondria after 30 min of treatment

protein stability, pulse-chase (HEK293 cells): more stable than WT SHLP2
Compound: MGVRFFTLSTRFFPSVQRAVPLWTNS [K4R SHLP2]

— PMC11116102, “A naturally occurring variant of SHLP2 is a protective factor in Parkinson’s disease” (Molecular Psychiatry, 2024)
